Reference: patent US9328138B2 (priority 2011, dated 2016)
Where two headings read alike, the source gives them in different places.

Tests used:
[1] = amide bond, 18-membered ring
[2] = target: T1, HCV genotype 1b (BK) NS3 modified enzyme with a R155K mutation (Hepatitis C virus genotype 1b, UniProt P26663, R1181K); test: HCV NS3 protease time-resolved fluorescence (TRF) assay, genotype 1b R155K; type: biochemical; conditions: Ki 1b R155K, genotype 1b (BK) NS3 R155K; single value
T1 construct: HCV genotype 1b (BK) NS3 modified enzyme
Outline: (§1)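 NS3/NS4A protease was pre-incubated 10 min with inhibitor in 50 mM HEPES pH 7.5, 150 mM NaCl, 15% glycerol, 0.15% Triton X-100, 10 mM DTT, 0.1% PEG 8000. TRF peptide substrate (25 nM final) was hydrolysed for 6 h at room temperature. IC50 came from four-parameter fits.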

[3] = target: HCV NS3 protease genotype 3a (3A-1) (Hepatitis C virus genotype 3a, UniProt Q81258); test: HCV NS3 protease time-resolved fluorescence (TRF) assay, genotype 3a; type: biochemical; conditions: Ki 3a
Outline: as §1

CCOC(=O)[C@@]12C[C@H]1/C=C\CCCCC[C@@H]1NC(=O)O[C@@H]3C[C@H]3CCC/C=C/c3c(nc4ccccc4c3OCCN3CCCCC3)O[C@@H]3C[C@@H](C(=O)N2)N(C3)C1=O
ring closure, yield of all isomers (from CCOC(=O)[C@@]12C[C@H]1/C=C\CCCCC[C@H](NC(=O)O[C@@H]1C[C@H]1CCC/C=C/B1OC(C)(C)C(C)(C)O1)C(=O)N1C[C@H](Oc3nc4ccccc4c(OCCN4CCCCC4)c3Br)C[C@H]1C(=O)N2, cc_pd bond, Pd(OAc)2/cataCXium A, Cs2CO3, dioxane, 36.6 mM, 100.0 °C, 1.0 h): 64.1%

CCOC(=O)[C@@]12C[C@H]1C=CCCCCC[C@H](NC(=O)OC(C)(C)C)C(=O)N1C[C@@H](OS(=O)(=O)c3ccc(Br)cc3)C[C@H]1C(=O)N2C(=O)OC(C)(C)C
ring closure, yield of all isomers (from C=CCCCCC[C@H](NC(=O)OC(C)(C)C)C(=O)N1C[C@@H](OS(=O)(=O)c2ccc(Br)cc2)C[C@H]1C(=O)N(C(=O)OC(C)(C)C)[C@]1(C(=O)OCC)C[C@H]1C=C, rcm bond, Zhan catalyst 1B, 1,2-dichloroethane, 10.0 mM, 75.0 °C, 2.0 h): 84.8%

CCOc1c2c(nc3ccccc13)O[C@@H]1C[C@@H](C(=O)OC)N(C1)C(=O)[C@H](C1CCCC1)NC(=O)O[C@@H]1CCC[C@H]1CCC=CC2
ring closure, yield of all isomers (from C=CCC[C@@H]1CCC[C@H]1OC(=O)N[C@H](C(=O)N1C[C@H](Oc2nc3ccccc3c(OCC)c2CC=C)C[C@H]1C(=O)OC)C1CCCC1, rcm bond, Zhan catalyst 1B, 1,2-dichloroethane, 6.79 mM, 25.0 °C, 4.0 h): 79.2%

COC(=O)[C@@H]1C[C@@H]2CN1C(=O)[C@H](C(C)(C)C)NC(=O)O[C@H]1C[C@@H]1CCCCCc1c(nc3ccncc3c1OC1CCN(C)CC1)O2
ring closure, isolated yield ([1]; HATU, 2 steps): 44.7% | ring closure, yield of all isomers (from COC(=O)[C@@H]1C[C@@H](Oc2nc3ccncc3c(OC3CCN(C)CC3)c2CCCCC[C@@H]2C[C@H]2OC(=O)N[C@H](C(=O)OC(C)(C)C)C(C)(C)C)CN1C(=O)OC(C)(C)C, amide bond, HATU, DMF, 51.5 mM, 25.0 °C, 1.5 h, 2 steps): 44.7%

COC(=O)[C@@H]1C[C@@H]2CN1C(=O)[C@H](C1(C)CCCCC1)NC(=O)O[C@@H]1C[C@H]1CCCC#Cc1c(nc3ccccc3c1OCc1ccccc1)O2
ring closure, isolated yield ([1]; from COC(=O)[C@@H]1C[C@@H](Oc2nc3ccccc3c(OCc3ccccc3)c2C#CCCC[C@@H]2C[C@H]2OC(=O)N[C@H](C(=O)O)C2(C)CCCCC2)CN1, HATU/DIEA, DMF, 50.0 mM): 58.8% | ring closure, yield of all isomers (from COC(=O)[C@@H]1C[C@@H](Oc2nc3ccccc3c(OCc3ccccc3)c2C#CCCC[C@@H]2C[C@H]2OC(=O)N[C@H](C(=O)O)C2(C)CCCCC2)CN1, amide bond, HATU, DMF, 50.0 mM, 25.0 °C, 3.0 h): 58.8%

COC(=O)[C@@H]1C[C@@H]2CN1C(=O)[C@H](C1Cc3ccccc3C1)NC(=O)O[C@@H]1C[C@H]1CCCC#Cc1c(nc3ccccc3c1OCc1ccccc1)O2
ring closure, isolated yield ([1]; from COC(=O)[C@@H]1C[C@@H](Oc2nc3ccccc3c(OCc3ccccc3)c2C#CCCC[C@@H]2C[C@H]2OC(=O)N[C@H](C(=O)O)C2Cc3ccccc3C2)CN1, HATU/DIEA, DMF, 50.0 mM): 80% | ring closure, yield of all isomers (from COC(=O)[C@@H]1C[C@@H](Oc2nc3ccccc3c(OCc3ccccc3)c2C#CCCC[C@@H]2C[C@H]2OC(=O)N[C@H](C(=O)O)C2Cc3ccccc3C2)CN1, amide bond, HATU, DMF, 50.0 mM, 25.0 °C, 2.0 h): 80%

CN1CCN(CCCOc2c3c(nc4ccccc24)O[C@@H]2C[C@H]4C(=O)N[C@]5(C(=O)NS(=O)(=O)C6(C)CC6)C[C@H]5/C=C\CCCCC[C@H](NC(=O)O[C@@H]5C[C@H]5CCC/C=C/3)C(=O)N4C2)CC1 [Example 304, (1aR,5S,11Z,12aS,13aR,16S,19R,27E, 31aR)-N-[(1-methylcyclopropyl)sulfonyl]-26-[3-(4-methylpiperazin-1-yl)propoxy]-3,15,33-trioxo-1,1a,3,4,5,6,7,8,9,10,12a,13,15,16,18, 19,29,30,31,31a-icosahydro-5,17:16,19-dimethanodicyclopropa[12,13:28,29] [1,20,3,14,17] dioxatriazacyclononacosino[21,22-b]quinoline-13a(14H)-carboxamide]
Ki [2]: 0.078 nM | Ki [3]: 1.2 nM

COc1c2c(nc3ccccc13)O[C@@H]1C[C@H]3C(=O)N[C@]4(C(=O)NS(=O)(=O)C5(C)CC5)C[C@H]4/C=C\CCCCC[C@H](NC(=O)O[C@@H]4C[C@H]4CCCCC2)C(=O)N3C1 [Example 305, (1aR,5S,11Z,12aS,13aR,16S,19R,31aR)-26-methoxy-N-[(1-methylcyclopropyl)sulfonyl]-3,15,33-trioxo-1,1a,3,4,5,6,7,8,9,10,12a,13,15,16,18,19,27,28,29,30,31,31a-docosahydro-5,17:16,19-dimethanodicyclopropa[12,13:28,29][1,20,3,14,17]dioxatriazacyclononacosino[21,22-b]quinoline-13a(14H)-carboxamide]
Ki [2]: 0.066 nM | Ki [3]: 2 nM

CC1(S(=O)(=O)NC(=O)[C@@]23C[C@H]2/C=C\CCCCC[C@@H]2NC(=O)O[C@@H]4C[C@H]4CCCCCc4c(nc5ccccc5c4OCCN4CCCC4)O[C@@H]4C[C@@H](C(=O)N3)N(C4)C2=O)CC1 [Example 306, (1aR,5S,11Z,12aS,13aR,16S,19R,31aR)—N-[(1-methylcyclopropyl)sulfonyl]-3,15,33-trioxo-26-[2-(pyrrolidin-1-yl)ethoxy]-1,1a,3,4,5,6,7,8,9,10,12a,13,15,16,18,19,27,28,29,30,31,31a-docosahydro-5,17:16,19-dimethanodicyclopropa[12,13:28,29][1,20,3,14,17]dioxatriazacyclononacosino[21,22-b]quinoline-13a(14H)-carboxamide]
Ki [2]: 0.083 nM | Ki [3]: 0.72 nM
